Target: Sonic hedgehog protein (Mus musculus, UniProt Q62226)
Assay: Activation of Shh in mouse Shh Light2 cells after 30 hrs by luciferase reporter gene assay

Sequence of Sonic hedgehog protein (Q62226 25-198 limits assumed): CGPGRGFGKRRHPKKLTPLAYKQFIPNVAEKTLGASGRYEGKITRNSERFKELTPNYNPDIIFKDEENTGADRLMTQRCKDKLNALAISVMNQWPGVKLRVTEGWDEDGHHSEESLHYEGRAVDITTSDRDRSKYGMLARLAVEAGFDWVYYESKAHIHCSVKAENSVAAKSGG

c1ccc2c(Oc3nc(Nc4ccc(N5CCOCC5)cc4)c4ncn(C5CCCCC5)c4n3)cccc2c1 [Purmorphamine]
EC50: 1000 nM

— BindingDB's records for doi:10.1038/nchembio753 (Stanford University School of Medicine, 2006)
